The values below come from patent US12637464B2, “Tetracyclic compounds for treating brain disorders” (The Regents of the University of California, priority 2021, dated 2026).

In this assay the test system is C57BL/6J mice. The assay is described as follows: Amphetamine induced locomotion. The conditions noted are these: pretreatment 1 mg/kg. It is filed as in vivo, mouse. How it is done:
Amphetamine Induced Locomotion. The amphetamine-induced hyperlocomotion assay was performed using male and female C57BL/6J mice that were approximately 8 weeks old at the time of the experiments. Animals were first placed in the test arena (40 cm×40 cm) for 15 min to obtain a basal reading of locomotion and habituate them to the testing arena. Next, animals were administered (+)-JRT (1 mg/kg) or VEH (2.5 mL/kg, i.p) and placed back in the test arena. After 15 min, the animals were administered D-amphetamine (3 mg/kg) or VEH (2.5 mL/kg) and placed back in the test arena for 60 minutes. Locomotion during the entire experiment was quantified using ANYmaze Video Tracking System, version 7.07 (Stoelting Co.).

In the case of `CCN(CC)C(=O)[C@@H]1C=C2c3cccc4ccn(c34)C[C@H]2N(C)C1` [(+)-JRT], the “AMPH-induced hyperlocomotion, female mice” value is “can block”.
